Biological target: T1, HIV protease (Human immunodeficiency virus type 1 group M subtype B, UniProt P03366)
T1 construct: made in house; host or cells: Escherichia coli
Test: Assay for Inhibition of Microbial Expressed Vital Protease (protease expressed in Eschericia coli, peptide substrate, HPLC of products)
Format: biochemical
Details: peptide substrate Val-Ser-Gln-Asn-(betanapthyl)Ala-Pro-Ile-Val 0.5 mg/mL; 50 mM Na acetate, pH 5.5, 30° C., 1 hour; 15 ul of 0.33 nM protease
Experimental: Assay for Inhibition of Microbial Expressed Vital Protease
Inhibition studies of the reaction of the protease expressed in Eschericia coli with a peptide substrate Val-Ser-Gln-Asn-(betanapthyl)Ala-Pro-Ile-Val, 0.5 mg/mL at the time the reaction is initiated! were in 50 mM Na acetate, p H 5.5, at 30° C. for 1 hour. Various concentrations of inhibitor in 1.0 ul DMSO were added to 25 ul of the peptide solution in water. The reaction is initiated by the addition of 15 ul of 0.33 nM protease (0.11 ng) in a solution of 0.133M Na acetate pH 5.5 and 0.1% bovine serum albumin. The reaction was quenched with 160 ul of 5% phosphoric acid. Products of the reaction were separated by HPLC (VYDAC wide pore 5 cm C-18 reverse phase, acetonitrile gradient, 0.1% phosphoric acid). The extent of inhibition of the reaction was determined from the peak heights of the products.

IC50	SMILES
11.5 to 58 nM	CC(C)(C)CC(=O)C[C@@H](CC1CCCCC1)[C@@H](O)C[C@@H](Cc1ccccc1)C(=O)N[C@H]1c2ccccc2C[C@H]1O [Compound B, N-(2(R)-hydroxy-1(S)-indanyl)-5(R)-cyclohexylmethyl-9,9-dimethyl-4(S)-hydroxy-7-oxo-2(R)-phenylmethyl decaneamide]
11.5 to 58 nM	CCCCC(=O)C[C@@H](CC1CCCCC1)[C@@H](O)C[C@@H](Cc1ccccc1)C(=O)N[C@H]1c2ccccc2C[C@H]1O [Compound A, N-(2(R)-hydroxy-1(S)-indanyl)-5(R)-cyclohexylmethyl-4(S)-hydroxy-7-oxo-2(R) -phenylmethyl undecaneamide]

From patent publication US5502053A, “HIV protease inhibitor compounds” (Merck & Co., Inc., priority 1994, dated 1996)
